Data as given in BindingDB's records for doi:10.7270/Q2NG4P21 (Nmmlsc, 2009).

molecular target: T1, Bcl-2-like protein 10 [11-204] (Homo sapiens, UniProt Q9HD36); experiment: inhibitors of Bim-Bcl-B binding, confirmation, biochemical, dose response, multiplexed HTS hits (AID 2077); conditions: not given
T1 construct: 11-204
T1 sequence (Q9HD36 whole entry): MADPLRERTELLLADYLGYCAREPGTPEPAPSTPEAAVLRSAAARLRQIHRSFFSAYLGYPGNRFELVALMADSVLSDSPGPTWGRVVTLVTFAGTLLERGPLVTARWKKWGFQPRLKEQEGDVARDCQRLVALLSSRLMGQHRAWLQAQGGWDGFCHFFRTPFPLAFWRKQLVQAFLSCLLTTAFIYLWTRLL

Point of comparison: `Cc1ccc(C=NNC(=O)CSc2nnc(-c3ccc(Cl)cc3)n2-c2ccccc2)o1` [SMR000218122], EC50 16.4 µM. Against it:
- CCN(CC)c1ccc(NC(=O)c2ccccc2Br)cc1S(=O)(=O)Nc1ccccc1OC — 1.9-fold lower, 8.66 µM
- COc1ccc(N2C(=O)C(Cl)=C(Oc3cccc(OC)c3)C2=O)cc1 [3-chloro-4-(3-methoxyphenoxy)-1-(4-methoxyphenyl)-1H-pyrrole-2,5-dione] — 27-fold lower, 0.61 µM
- O=C1C(=Cc2ccco2)NC(=S)N1c1ccccc1 [(5E)-5-(furan-2-ylmethylidene)-3-phenyl-2-sulfanylideneimidazolidin-4-one] — 5.7-fold lower, 2.9 µM
- O=c1c2c(n3nnnc3n1Cc1ccccc1)-c1ccccc1CC21CCCC1 [MLS000030575] — 4.6-fold lower, 3.57 µM
- O=C1NC(=O)C2(Cc3c(nc4ccccn4c3=O)N3CCCCCC32)C(=O)N1Cc1ccccc1 (centres undefined) [MLS000083668] — 2.6-fold lower, 6.4 µM
- CC(=O)Nc1ccc(-n2cc(-c3ccccc3)[nH]c2=S)cc1 [MLS001001946] — 18-fold lower, 0.92 µM
- O=C(Nc1nnc(COc2ccc(Cl)cc2)s1)c1ccco1 [N-[5-[(4-chloranylphenoxy)methyl]-1,3,4-thiadiazol-2-yl]furan-2-carboxamide] — 11-fold lower, 1.46 µM
- S=c1[nH]cc(-c2ccccc2)n1-c1ccccc1 [SMR000196363] — 51-fold lower, 0.32 µM

same assay, conditions: inactive by the depositor's call

Point of comparison: `COc1ccccc1-n1c(-c2ccccc2)c[nH]c1=S` [MLS001007615], EC50 24.4 µM. Against it:
- O=c1[nH]c(O)c(Cc2ccc(-c3cc(Cl)ccc3[N+](=O)[O-])o2)c(=O)[nH]1 — within 1.5-fold, 36.5 µM
- O=C(NCc1ccccc1)c1ccc2nc(-c3ccco3)c(-c3ccco3)nc2c1 [2,3-bis(furan-2-yl)-N-(phenylmethyl)quinoxaline-6-carboxamide] — within 1.5-fold, 31.6 µM
- Cc1cc(-c2cc(-c3ccc(Cl)cc3)nc(N)c2C#N)co1 [2-azanyl-6-(4-chlorophenyl)-4-(5-methylfuran-3-yl)pyridine-3-carbonitrile] — 1.6-fold lower, 15.2 µM
- Clc1nc(NCc2cccnc2)nc(N2CCOCC2)n1 [MLS000121154] — 1.8-fold lower, 13.5 µM
